{"source": "patent US20090239828A1", "about": "“Adhesive preparation” (priority 2006, published 2009)", "key": {"[1]": {"experiment": "Oral administration in rat models of osteoporosis", "settings": "in vivo; from the minimum effective dose in oral administration in rat models; read-out: sum of the AUC value of minodronic acid per month that gives a suppressive effect on osteoporosis", "description": "The effective blood concentration of the bisphosphonic acid derivative for human can be extrapolated from results of various clinical tests, animal experiments, etc. For example, when minodronic acid hydrate was used, the sum of the AUC value of minodronic acid per month that gives a suppressive effect on osteoporosis was about 5 ng·hr/mL or more, from the minimum effective dose in oral administration in rat models of osteoporosis."}, "[2]": {"experiment": "Clinical test, once daily oral administration to patients with osteoporosis", "settings": "human, in vivo"}}, "data": [{"smiles": "O=P(O)(O)C(O)(Cc1cnc2ccccn12)P(=O)(O)O", "note": "[minodronic acid hydrate, 1-hydroxy-2-(imidazo[1,2-a]pyridin-3-yl)ethylidenebisphosphonic acid]", "values": [{"measurement": "AUC", "setting": "[1]", "value": "≥ 5", "unit": "ng·h/mL"}, {"measurement": "AUC", "setting": "[2]", "value": "≥ 1", "unit": "ng·h/mL"}]}]}
